# From patent US5019385A, “Novel lymphopine LK 2 and pharmaceutic compositions containing same” (Kabushiki Kaisha Hayashibara Seibutsu Kagaku Kenkyujo, priority 1984, dated 1991)
# Where a name gives a salt, the structure may show the parent alone.
# Assays:
# HEp#2 = experiment: enhancement of antioncotic effect of chemotherapeutics by LK 2 (Experiment C-1, Table V); assay type: cell-based, human; details: ACNU 1.0×10^-6, 5-FU 1.5×10^-8, ADM 1.0×10^-10, MMC 2.5×10^-9 g/ml culture, VCR 1.5×10^-10 g/culture
# Protocol: (§1) One human malignant tumor cell suspension (10^6 cells) was inoculated on 1 ml of conventional-type nutrient culture medium supplemented with foetal calf serum, and then cultured for one day. Thereafter, there was added to the culture 0.1 ml of saline containing 100 units of an LK 2 specimen, prepared by the method in Experiment A-3, and/or a chemotherapeutic, and cultured for an additional two days at 37° C.
# (§2) As the control, an LK 2- and chemotherapeutic-free saline was used.
# (§3) After completion of the culture, the number of viable cells was counted in accordance with the method in Experiment B-1, and the growth inhibition (%) was then determined.
# (§4) The concentrations of the tested chemotherapeutics were as follows: nimustine hydrochloride (ACNU), 1.0×10^-6 g/ml culture; fluorouracil (5-FU), 1.5×10^-8 g/ml culture; doxorubicin (ADM), 1.0×10^-10 g/ml culture; mitomycin C (MMC), 2.5×10^-9 g/ml culture; and vincristine sulfate (VCR), 1.5×10^-10 g/culture.
# HLE = experiment: as above; assay type: cell-based, human; details: ACNU 1.0×10^-6, 5-FU 1.5×10^-8, ADM 1.0×10^-10, MMC 2.5×10^-9 g/ml culture, VCR 1.5×10^-10 g/culture
# Protocol: as §1, §2, §3, §4
# HeLa = experiment: as above; assay type: cell-based, human; details: ACNU 1.0×10^-6, 5-FU 1.5×10^-8, ADM 1.0×10^-10, MMC 2.5×10^-9 g/ml culture, VCR 1.5×10^-10 g/culture
# Protocol: as §1, §2, §3, §4
# MKN 7 = experiment: as above; assay type: cell-based, human; details: ACNU 1.0×10^-6, 5-FU 1.5×10^-8, ADM 1.0×10^-10, MMC 2.5×10^-9 g/ml culture, VCR 1.5×10^-10 g/culture
# Protocol: as §1, §2, §3, §4
# PC-8 = experiment: as above; assay type: cell-based, human; details: ACNU 1.0×10^-6, 5-FU 1.5×10^-8, ADM 1.0×10^-10, MMC 2.5×10^-9 g/ml culture, VCR 1.5×10^-10 g/culture
# Protocol: as §1, §2, §3, §4
# [1] = test system: human breast cancer tissue; experiment: tumor mass in nude mice, LK 2 and/or mitomycin C (Experiment C-2, Table VI); assay type: in vivo, human tissue in BALB/c nude mice; details: MMC 1 mg/kg per day i.v., twenty days; control 10.8 ± 1.0; * significant vs control (5%)
# Protocol: A group of BALB/c nude mice was transplanted subcutaneously in their dorsum areas with small fragments of human breast cancer tissue.
# After the tumor masses grew to about 200 mm^3 in the bodies of the animals, saline containing an LK 2 preparation, obtained by the method described in Experiment A-3, and/or mitomycin C (MMC) was injected intravenously once every day for twenty days.
# Thereafter, the animals were sacrificed, and the resultant tumor masses were weighed.
# as §2
SMILES,"growth inhibition (%) to tumor cell (HEp#2; +, with LK 2 100 units)","growth inhibition (%) to tumor cell (HEp#2; -, without LK 2)","growth inhibition (%) to tumor cell (HLE; +, with LK 2 100 units)","growth inhibition (%) to tumor cell (HLE; -, without LK 2)","growth inhibition (%) to tumor cell (HeLa; +, with LK 2 100 units)","growth inhibition (%) to tumor cell (HeLa; -, without LK 2)","growth inhibition (%) to tumor cell (MKN 7; +, with LK 2 100 units)","growth inhibition (%) to tumor cell (MKN 7; -, without LK 2)","growth inhibition (%) to tumor cell (PC-8; +, with LK 2 100 units)","growth inhibition (%) to tumor cell (PC-8; -, without LK 2)",Tumor mass [1]
"CC[C@]1(O)C[C@H]2CN(CCc3c([nH]c4ccccc34)[C@@](C(=O)OC)(c3cc4c(cc3OC)N(C=O)[C@H]3[C@@](O)(C(=O)OC)[C@H](OC(C)=O)[C@]5(CC)C=CCN6CC[C@]43[C@@H]65)C2)C1 (stereo in doubt) [VCR, vincristine sulfate]",66%,5%,69%,10%,63%,10%,70%,6%,72%,8%,–
"O=c1[nH]cc(F)c(=O)[nH]1 [5-FU, fluorouracil]",80%,8%,81%,8%,69%,12%,77%,6%,85%,10%,–
"CO[C@@]12[C@H](COC(N)=O)C3=C(C(=O)C(C)=C(N)C3=O)N1C[C@@H]1N[C@@H]12 [MMC, mitomycin C]",72%,10%,74%,12%,61%,7%,73%,3%,68%,5%,5.1 ± 0.4 g
"Cc1ncc(CNC(=O)N(CCCl)N=O)c(N)n1 [ACNU, nimustine hydrochloride]",67%,4%,75%,5%,71%,5%,73%,4%,71%,2%,–
"COc1cccc2c1C(=O)c1c(O)c3c(c(O)c1C2=O)C[C@@](O)(C(=O)CO)C[C@@H]3O[C@H]1C[C@H](N)[C@H](O)[C@H](C)O1 [ADM, doxorubicin]",70%,13%,73%,7%,62%,7%,69%,5%,71%,6%,–
